Experimental data published in ChEMBL document CHEMBL4507261, “Data for DCP probe A-192621” (2021).

Experiments:
[1] = target: Sulfonylurea receptors; K-ATP channels (Rattus norvegicus) (UniProt Q63563+P70673+Q63664+Q09429); experiment: KATP channel Eurofins-Cerep binding assay; format: protein-complex assay; conditions: filed as antagonist, Compound concentration 10.0 uM
[2] = target: Serine/threonine-protein kinase SBK1 (Homo sapiens) (UniProt Q52WX2); conditions: Compound concentration 1000.0 nM
[3] = target: Maternal embryonic leucine zipper kinase (Homo sapiens) (UniProt Q14680); conditions: Compound concentration 1000.0 nM
[4] = target: Ribosomal protein S6 kinase alpha-4 (Homo sapiens) (UniProt O75676); conditions: Compound concentration 1000.0 nM
[5] = target: T1, Endothelin-1 receptor (Homo sapiens, UniProt P25101); experiment: Eurofins cellular functional assay - Antagonist (EDNRA)
T1 sequence (P25101 whole entry): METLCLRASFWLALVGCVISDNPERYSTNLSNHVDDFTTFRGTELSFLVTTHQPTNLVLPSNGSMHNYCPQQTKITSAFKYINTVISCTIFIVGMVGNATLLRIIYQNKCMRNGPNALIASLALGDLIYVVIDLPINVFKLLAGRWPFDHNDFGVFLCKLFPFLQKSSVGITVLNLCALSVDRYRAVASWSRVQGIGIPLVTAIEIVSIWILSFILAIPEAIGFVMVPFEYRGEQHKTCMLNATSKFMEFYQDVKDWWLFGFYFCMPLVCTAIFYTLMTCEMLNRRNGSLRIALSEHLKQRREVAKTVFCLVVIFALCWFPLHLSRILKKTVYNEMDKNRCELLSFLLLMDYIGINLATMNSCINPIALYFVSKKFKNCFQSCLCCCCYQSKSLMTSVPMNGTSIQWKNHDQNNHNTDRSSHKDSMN

[6] = target: Mast/stem cell growth factor receptor Kit (Homo sapiens) (UniProt P10721); conditions: Compound concentration 1000.0 nM
[7] = target: Glucocorticoid receptor (Homo sapiens) (UniProt P04150); experiment: GR (h) Eurofins-Cerep binding assay; parameters: ligand concentration 1.5 nM; conditions: filed as agonist, Compound concentration 10.0 uM
[8] = target: Mitogen-activated protein kinase 8 (Homo sapiens) (UniProt P45983); conditions: Compound concentration 1000.0 nM
[9] = target: MAP kinase-interacting serine/threonine-protein kinase 2 (Homo sapiens) (UniProt Q9HBH9); conditions: Compound concentration 1000.0 nM
[10] = target: 5-hydroxytryptamine receptor 4 (Homo sapiens) (UniProt Q13639); experiment: 5-HT4 e (h) Eurofins-Cerep binding assay; parameters: ligand concentration 0.3 nM; conditions: filed as antagonist, Compound concentration 10.0 uM
[11] = target: Calcium/calmodulin-dependent protein kinase type 1G (Homo sapiens) (UniProt Q96NX5); conditions: Compound concentration 1000.0 nM
[12] = target: Serine/threonine-protein kinase MARK2 (Homo sapiens) (UniProt Q7KZI7); conditions: Compound concentration 1000.0 nM
[13] = target: Protein kinase C delta type (Homo sapiens) (UniProt Q05655); conditions: Compound concentration 1000.0 nM
[14] = target: Testis-specific serine/threonine-protein kinase 1 (Homo sapiens) (UniProt Q9BXA7); conditions: Compound concentration 1000.0 nM
[15] = target: Serine/threonine-protein kinase MRCK gamma (Homo sapiens) (UniProt Q6DT37); conditions: Compound concentration 1000.0 nM
[16] = target: Non-receptor tyrosine-protein kinase TYK2 (Homo sapiens) (UniProt P29597); conditions: Compound concentration 1000.0 nM
[17] = target: Serine/threonine-protein kinase 26 (Homo sapiens) (UniProt Q9P289); conditions: Compound concentration 1000.0 nM
[18] = target: Serine/threonine-protein kinase Nek2 (Homo sapiens) (UniProt P51955); conditions: Compound concentration 1000.0 nM
[19] = target: Serine/threonine-protein kinase BRSK1 (Homo sapiens) (UniProt Q8TDC3); conditions: Compound concentration 1000.0 nM
[20] = target: Serine/threonine-protein kinase MAK (Homo sapiens) (UniProt P20794); conditions: Compound concentration 1000.0 nM
[21] = target: 1-phosphatidylinositol 3-phosphate 5-kinase (Homo sapiens) (UniProt Q9Y2I7); conditions: Compound concentration 1000.0 nM
[22] = target: Myotonin-protein kinase (Homo sapiens) (UniProt Q09013); conditions: Compound concentration 1000.0 nM
[23] = target: BMP-2-inducible protein kinase (Homo sapiens) (UniProt Q9NSY1); conditions: Compound concentration 1000.0 nM
[24] = target: Mitogen-activated protein kinase kinase kinase 13 (Homo sapiens) (UniProt O43283); conditions: Compound concentration 1000.0 nM
[25] = target: Vasopressin V1a receptor (Homo sapiens) (UniProt P37288); experiment: V1 a (h) Eurofins-Cerep binding assay; parameters: ligand concentration 0.3 nM; conditions: filed as agonist, Compound concentration 10.0 uM
[26] = target: Ribosomal protein S6 kinase alpha-3 (Homo sapiens) (UniProt P51812); conditions: Compound concentration 1000.0 nM
[27] = target: Mitogen-activated protein kinase kinase kinase 11 (Homo sapiens) (UniProt Q16584); conditions: Compound concentration 1000.0 nM
[28] = target: Hepatocyte growth factor receptor (Homo sapiens) (UniProt P08581); conditions: Compound concentration 1000.0 nM
[29] = target: Serine/threonine-protein kinase 10 (Homo sapiens) (UniProt O94804); conditions: Compound concentration 1000.0 nM
[30] = target: Receptor-type tyrosine-protein kinase FLT3 (Homo sapiens) (UniProt P36888); conditions: Compound concentration 1000.0 nM
[31] = species on record: Rattus norvegicus; experiment: SKCa channel Eurofins-Cerep binding assay; parameters: ligand concentration 0.007 nM; conditions: filed as antagonist, Compound concentration 10.0 uM
[32] = target: Cyclin-G-associated kinase (Homo sapiens) (UniProt O14976); conditions: Compound concentration 1000.0 nM
[33] = target: Casein kinase II subunit alpha' (Homo sapiens) (UniProt P19784); conditions: Compound concentration 1000.0 nM
[34] = target: Dual specificity protein kinase TTK (Homo sapiens) (UniProt P33981); conditions: Compound concentration 1000.0 nM
[35] = test system: eIF-2-alpha kinase GCN2 (Homo sapiens), Q9P2K8 [S808G]; conditions: Compound concentration 1000.0 nM
[36] = target: Cyclin-dependent kinase 2 homolog (Plasmodium falciparum (isolate 3D7)) (UniProt P61075); conditions: Compound concentration 1000.0 nM
[37] = target: Sodium-dependent noradrenaline transporter (Homo sapiens) (UniProt P23975); experiment: norepinephrine transporter (h) Eurofins-Cerep binding assay; conditions: filed as antagonist, Compound concentration 10.0 uM
[38] = test system: Receptor-type tyrosine-protein kinase FLT3 (Homo sapiens), P36888 [UNDEFINED MUTATION]; conditions: Compound concentration 1000.0 nM
[39] = test system: Receptor-type tyrosine-protein kinase FLT3 (Homo sapiens), P36888 [UNDEFINED MUTATION]; conditions: Compound concentration 1000.0 nM; remark: listed apart in the source

Chain of Receptor-type tyrosine-protein kinase FLT3 (Homo sapiens), P36888 [UNDEFINED MUTATION] (P36888 whole entry, looked up, change not shown): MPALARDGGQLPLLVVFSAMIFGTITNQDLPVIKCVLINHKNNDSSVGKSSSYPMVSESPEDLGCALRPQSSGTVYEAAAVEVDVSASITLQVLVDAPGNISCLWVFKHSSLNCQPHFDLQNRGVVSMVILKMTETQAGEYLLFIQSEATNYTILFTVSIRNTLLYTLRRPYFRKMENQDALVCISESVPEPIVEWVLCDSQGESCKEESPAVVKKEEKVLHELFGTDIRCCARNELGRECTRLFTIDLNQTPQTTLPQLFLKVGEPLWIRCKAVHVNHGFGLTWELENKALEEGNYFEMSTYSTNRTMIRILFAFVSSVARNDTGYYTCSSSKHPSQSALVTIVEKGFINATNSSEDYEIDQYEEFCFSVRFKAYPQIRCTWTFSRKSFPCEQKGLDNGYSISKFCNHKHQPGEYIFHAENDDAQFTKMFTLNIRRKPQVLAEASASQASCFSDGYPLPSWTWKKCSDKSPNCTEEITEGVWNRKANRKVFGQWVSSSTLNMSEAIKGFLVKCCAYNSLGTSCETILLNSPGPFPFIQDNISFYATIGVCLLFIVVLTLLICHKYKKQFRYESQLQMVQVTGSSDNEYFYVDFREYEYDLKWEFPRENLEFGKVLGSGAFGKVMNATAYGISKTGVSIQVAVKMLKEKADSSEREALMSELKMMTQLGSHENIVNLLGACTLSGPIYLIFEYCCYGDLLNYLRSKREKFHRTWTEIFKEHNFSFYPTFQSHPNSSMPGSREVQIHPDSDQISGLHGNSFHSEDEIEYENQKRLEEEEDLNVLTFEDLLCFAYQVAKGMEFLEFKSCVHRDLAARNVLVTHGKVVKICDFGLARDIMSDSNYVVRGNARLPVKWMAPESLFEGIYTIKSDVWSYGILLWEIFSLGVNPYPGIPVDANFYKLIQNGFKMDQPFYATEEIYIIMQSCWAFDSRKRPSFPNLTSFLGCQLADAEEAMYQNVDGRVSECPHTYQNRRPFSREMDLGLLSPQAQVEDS
Chain of Sulfonylurea receptors; K-ATP channels (Rattus norvegicus) (P70673 whole entry, looked up): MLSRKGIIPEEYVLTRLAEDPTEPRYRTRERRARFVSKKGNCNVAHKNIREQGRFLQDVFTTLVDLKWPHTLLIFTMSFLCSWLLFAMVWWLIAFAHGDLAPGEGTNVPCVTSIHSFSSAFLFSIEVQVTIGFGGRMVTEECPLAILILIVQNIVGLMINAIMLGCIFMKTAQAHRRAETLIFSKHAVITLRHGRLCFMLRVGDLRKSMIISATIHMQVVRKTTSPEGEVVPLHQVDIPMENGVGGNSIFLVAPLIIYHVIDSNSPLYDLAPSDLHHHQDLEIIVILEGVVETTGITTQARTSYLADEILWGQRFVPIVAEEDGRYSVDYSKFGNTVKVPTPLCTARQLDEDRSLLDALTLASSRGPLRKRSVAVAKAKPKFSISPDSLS
Chain of Sulfonylurea receptors; K-ATP channels (Rattus norvegicus) (Q09429 whole entry, looked up): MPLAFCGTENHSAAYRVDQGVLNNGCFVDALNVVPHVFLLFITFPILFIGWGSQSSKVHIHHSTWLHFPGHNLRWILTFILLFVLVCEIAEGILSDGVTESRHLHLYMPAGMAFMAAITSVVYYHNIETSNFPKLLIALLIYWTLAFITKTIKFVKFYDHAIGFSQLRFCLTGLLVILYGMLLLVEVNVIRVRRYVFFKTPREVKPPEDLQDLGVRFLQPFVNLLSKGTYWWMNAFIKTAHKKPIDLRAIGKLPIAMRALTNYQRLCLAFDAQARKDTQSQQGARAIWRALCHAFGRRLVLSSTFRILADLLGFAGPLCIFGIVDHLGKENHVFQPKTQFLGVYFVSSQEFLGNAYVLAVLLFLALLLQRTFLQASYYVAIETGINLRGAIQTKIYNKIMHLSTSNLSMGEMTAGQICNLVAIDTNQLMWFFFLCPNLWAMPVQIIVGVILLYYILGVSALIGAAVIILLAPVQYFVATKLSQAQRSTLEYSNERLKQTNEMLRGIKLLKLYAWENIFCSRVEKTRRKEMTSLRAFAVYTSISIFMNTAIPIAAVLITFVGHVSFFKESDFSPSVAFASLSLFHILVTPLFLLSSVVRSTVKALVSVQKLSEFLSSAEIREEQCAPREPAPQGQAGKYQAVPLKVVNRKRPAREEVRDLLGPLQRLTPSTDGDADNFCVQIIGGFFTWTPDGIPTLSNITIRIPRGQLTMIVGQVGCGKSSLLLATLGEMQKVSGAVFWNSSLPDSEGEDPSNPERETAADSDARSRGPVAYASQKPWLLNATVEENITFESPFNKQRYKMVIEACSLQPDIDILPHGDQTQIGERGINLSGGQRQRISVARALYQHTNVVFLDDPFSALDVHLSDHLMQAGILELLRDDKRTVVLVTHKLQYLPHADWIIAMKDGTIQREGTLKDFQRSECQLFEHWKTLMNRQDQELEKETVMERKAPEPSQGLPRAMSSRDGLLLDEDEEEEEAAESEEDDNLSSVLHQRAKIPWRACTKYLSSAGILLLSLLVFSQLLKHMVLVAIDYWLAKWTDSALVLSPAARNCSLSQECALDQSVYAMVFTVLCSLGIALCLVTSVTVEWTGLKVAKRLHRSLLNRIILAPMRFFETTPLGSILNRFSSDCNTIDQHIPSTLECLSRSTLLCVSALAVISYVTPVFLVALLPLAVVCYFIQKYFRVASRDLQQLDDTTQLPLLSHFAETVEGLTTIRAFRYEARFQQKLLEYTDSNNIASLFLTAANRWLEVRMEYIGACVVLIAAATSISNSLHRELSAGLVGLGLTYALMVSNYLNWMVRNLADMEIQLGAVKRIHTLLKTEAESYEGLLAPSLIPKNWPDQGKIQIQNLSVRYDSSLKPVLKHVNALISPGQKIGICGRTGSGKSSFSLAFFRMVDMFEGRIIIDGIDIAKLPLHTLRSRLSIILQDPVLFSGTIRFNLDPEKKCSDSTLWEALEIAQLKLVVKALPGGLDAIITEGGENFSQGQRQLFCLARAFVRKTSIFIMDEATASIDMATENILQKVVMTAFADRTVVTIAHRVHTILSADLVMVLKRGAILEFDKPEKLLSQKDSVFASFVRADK
Chain of Sulfonylurea receptors; K-ATP channels (Rattus norvegicus) (Q63563 whole entry, looked up): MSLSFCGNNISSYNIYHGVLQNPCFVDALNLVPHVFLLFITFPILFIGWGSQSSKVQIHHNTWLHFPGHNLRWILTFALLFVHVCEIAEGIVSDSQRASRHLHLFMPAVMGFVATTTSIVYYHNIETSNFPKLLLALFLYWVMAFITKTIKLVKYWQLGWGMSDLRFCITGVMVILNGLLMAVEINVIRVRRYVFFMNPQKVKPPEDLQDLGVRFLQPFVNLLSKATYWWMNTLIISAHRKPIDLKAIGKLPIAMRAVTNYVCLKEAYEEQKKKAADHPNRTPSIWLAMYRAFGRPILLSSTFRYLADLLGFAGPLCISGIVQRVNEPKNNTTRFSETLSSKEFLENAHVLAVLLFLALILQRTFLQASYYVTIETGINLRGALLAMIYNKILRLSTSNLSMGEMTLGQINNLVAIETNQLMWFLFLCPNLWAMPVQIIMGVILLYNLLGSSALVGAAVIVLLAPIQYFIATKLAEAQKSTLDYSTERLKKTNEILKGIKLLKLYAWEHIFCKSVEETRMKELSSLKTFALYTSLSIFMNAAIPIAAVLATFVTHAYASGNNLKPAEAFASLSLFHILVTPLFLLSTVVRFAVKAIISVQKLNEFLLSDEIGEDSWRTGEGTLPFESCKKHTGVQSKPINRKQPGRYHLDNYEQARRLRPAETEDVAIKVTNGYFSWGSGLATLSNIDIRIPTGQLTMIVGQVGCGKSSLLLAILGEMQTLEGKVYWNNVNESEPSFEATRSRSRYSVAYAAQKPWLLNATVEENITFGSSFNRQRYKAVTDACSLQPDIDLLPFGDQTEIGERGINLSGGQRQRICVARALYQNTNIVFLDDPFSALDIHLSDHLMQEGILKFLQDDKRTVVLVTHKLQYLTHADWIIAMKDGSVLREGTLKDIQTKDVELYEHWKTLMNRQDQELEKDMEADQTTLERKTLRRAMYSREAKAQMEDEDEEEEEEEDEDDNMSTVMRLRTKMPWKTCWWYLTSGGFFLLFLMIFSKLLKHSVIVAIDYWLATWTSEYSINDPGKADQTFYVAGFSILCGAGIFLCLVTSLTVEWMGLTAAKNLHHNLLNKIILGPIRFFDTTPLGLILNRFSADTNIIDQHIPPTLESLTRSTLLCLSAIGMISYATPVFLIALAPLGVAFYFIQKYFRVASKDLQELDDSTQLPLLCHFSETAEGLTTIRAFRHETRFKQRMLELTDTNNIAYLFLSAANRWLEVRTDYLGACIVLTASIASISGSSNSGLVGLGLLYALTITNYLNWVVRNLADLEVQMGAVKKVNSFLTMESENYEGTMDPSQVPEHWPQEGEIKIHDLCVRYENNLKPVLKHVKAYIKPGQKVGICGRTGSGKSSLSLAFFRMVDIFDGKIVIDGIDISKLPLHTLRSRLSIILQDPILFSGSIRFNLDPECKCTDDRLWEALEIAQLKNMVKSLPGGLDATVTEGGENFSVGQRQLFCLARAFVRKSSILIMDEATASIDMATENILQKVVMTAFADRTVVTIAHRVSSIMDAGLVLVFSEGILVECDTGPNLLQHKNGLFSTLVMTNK
Chain of Sulfonylurea receptors; K-ATP channels (Rattus norvegicus) (Q63664 whole entry, looked up): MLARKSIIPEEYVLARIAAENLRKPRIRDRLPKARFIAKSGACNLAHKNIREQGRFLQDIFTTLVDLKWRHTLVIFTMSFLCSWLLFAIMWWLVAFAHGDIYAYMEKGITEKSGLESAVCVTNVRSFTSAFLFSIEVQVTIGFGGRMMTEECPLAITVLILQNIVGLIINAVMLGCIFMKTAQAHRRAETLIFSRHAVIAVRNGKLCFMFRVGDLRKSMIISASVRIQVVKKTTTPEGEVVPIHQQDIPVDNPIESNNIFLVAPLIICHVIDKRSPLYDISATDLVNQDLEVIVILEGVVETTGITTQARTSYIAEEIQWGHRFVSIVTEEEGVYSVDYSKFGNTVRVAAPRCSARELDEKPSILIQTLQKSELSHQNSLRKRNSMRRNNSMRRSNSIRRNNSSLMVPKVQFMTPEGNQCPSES
Chain of Receptor-type tyrosine-protein kinase FLT3 (Homo sapiens) (P36888 whole entry): as the sequence (P36888 whole entry, looked up, change not shown) above

| SMILES | % Inhibition of Control Specific Binding (Mean n=2) [1] [%] | residual activity [2] [%] | residual activity [3] [%] | residual activity [4] [%] | IC50 [5] | residual activity [6] [%] | % Inhibition of Control Specific Binding (Mean n=2) [7] [%] | residual activity [8] [%] | residual activity [9] [%] | % Inhibition of Control Specific Binding (Mean n=2) [10] [%] | residual activity [11] [%] | residual activity [12] [%] | residual activity [13] [%] | residual activity [14] [%] | residual activity [15] [%] | residual activity [16] [%] | residual activity [17] [%] | residual activity [18] [%] | residual activity [19] [%] | residual activity [20] [%] | other results |
| --- | --- | --- | --- | --- | --- | --- | --- | --- | --- | --- | --- | --- | --- | --- | --- | --- | --- | --- | --- | --- | --- |
| CCCOc1ccc([C@H]2[C@H](C(=O)O)[C@@H](c3ccc4c(c3)OCO4)CN2CC(=O)Nc2c(CC)cccc2CC)cc1 [A-192621] | 11.1 | 78 | 65 | 84 | 3.6 µM (not active) | 85 | 7 | 70 | 74 | -12.4 | 90 | 88 | 100 | 92 | 79 | 51 | 74 | 90 | 100 | 97 | residual activity [21]: 86%; residual activity [22]: 81%; residual activity [23]: 87%; residual activity [24]: 47%; % Inhibition of Control Specific Binding (Mean n=2) [25]: 7.4%; residual activity [26]: 72%; residual activity [27]: 100%; residual activity [28]: 100%; residual activity [29]: 97%; residual activity [30]: 80%; % Inhibition of Control Specific Binding (Mean n=2) [31]: 0.5%; residual activity [32]: 93%; residual activity [33]: 87%; residual activity [34]: 94%; residual activity [35]: 90%; residual activity [36]: 87%; % Inhibition of Control Specific Binding (Mean n=2) [37]: 16.2%; residual activity [38]: 13%; residual activity [39]: 59% |
| CCCOc1ccc([C@@H]2[C@@H](C(=O)O)[C@H](c3ccc4c(c3)OCO4)CN2CC(=O)Nc2c(CC)cccc2CC)cc1 [A-1806262] | 6 | 81 | 84 | 97 | 1.6 µM (not active) | 90 | 4.1 | 87 | 87 | -13.4 | 89 | 92 | 100 | 100 | 57 | 74 | 81 | 97 | 100 | 93 | residual activity [21]: 91%; residual activity [22]: 86%; residual activity [23]: 92%; residual activity [24]: 75%; % Inhibition of Control Specific Binding (Mean n=2) [25]: 15%; residual activity [26]: 95%; residual activity [27]: 100%; residual activity [28]: 92%; residual activity [29]: 98%; residual activity [30]: 71%; % Inhibition of Control Specific Binding (Mean n=2) [31]: -2%; residual activity [32]: 98%; residual activity [33]: 83%; residual activity [34]: 100%; residual activity [35]: 100%; residual activity [36]: 97%; % Inhibition of Control Specific Binding (Mean n=2) [37]: 1.6%; residual activity [38]: 63%; residual activity [39]: 61% |
